Data on ten compounds can be found in patent publication US5948782A, “Pharmaceutical composition containing quinoline and quinazoline derivatives and novel compounds therefor” (Takeda Chemical, priority 1992, dated 1999).

Assay [1] concerns Rat Adjuvant Arthritis. The experiment in a line: Effects on Rat Adjuvant Arthritis. It is filed as in vivo. The note with it: 336 h, Lewis rats, 50 mg/kg once a day for 14 days; for change in vivo at 50 mg/kg: based on drug-unadministered rats, read-out: Increase rate of body weight (%); for inhibition in vivo at 50 mg/kg: left hind leg, 14th day, read-out: Swelling inhibitory rate (%).

Assay [2] deals with IL-1β. The experiment in a line: Anti-IL-1 activity (extracellular substrates of rat cartilage cells). Type of assay: cell-based. The note with it: 72 h, IL-1β 0.2 ng/ml, 3 days, read-out: IL-1 inhibitory activity (%). How it is done:
Rat cartilage cells were prepared according to the known method [Fujio Suzuki et al., Sin Seikagaku Jikken Kohza, 18, p.871-875 (1990)] and cultivated in Dulbecco's Medium containing 10% fetal bovine serum. After 8 days, various concentrations of a test drug and IL-1β (0.2 ng/ml) were added, and the cells were cultivated for additional 3 days. The amount of extracellular substrates thus produced was determined.
Although IL-1β inhibits the synthesis of extracellular substrates of cartilage cells, addition of the drug inhibits the IL-1 activity and the amount of extracellular substrates synthesized was recovered.

For assay [3], the system named is Antigen-responsive T cell. In words: Antigen-Responsive T Cell Growth Inhibitory Activity (PPD-stimulated 3H-Tdr incorporation). Type of assay: cell-based, Lewis rats. The note with it: PPD 2 μg/ml, Lewis rat T cells, read-out: Antigen-responsive T cell growth inhibitory rate (%). As to the method:
Antigen-Responsive T Cell Growth Inhibitory Activity
According to the method of Test Example 1, adjuvant arthritis was induced in Lewis rats (male, 7 weeks old). After 14 days, lymphonodi inguinales were excised. Then, a single-cell suspension was prepared by using RPMI-1640 medium containing 5% fetal bovine serum and then incubated at 37° C. for 1 hour in a nylon wool column. The cells were eluted from the column with the same medium. The non-adsorptive cell-fraction was used as T cells.
On the other hand, spleen cells were taken out from unsensitized Lewis rats (male, 8 to 9 weeks old) and irradiated with soft X-rays (20,000 R). To the spleen cells (1×10^5 cells/well) were added the above T cells (5×10^5 cells/well), PPD (Purified Protein Derivatives; final concentration: 2 μg/ml) and 2% Lewis rat serum (treated at 56° C. for 30 minutes). The mixture was incubated at 37° C. for 72 hours in a 5% carbonic acid incubator. Further, ^3 H-Tdr (0.5 μCi/well) was added followed by incubation for 24 hours. The cells were recovered, and the radioactivity of ^3 H-Tdr incorporated into the cells was determined. The test drug was added to the cell suspension just before the addition of PPD, and effects on incorporation of ^3 H-Tdr into the cells were observed.

SMILES strings stand for the structures.

Regarding `CCOC(=O)c1c(C[S+]([O-])c2nccn2C)nc2cc(OC)c(OC)cc2c1-c1ccc(OC)c(OC)c1` (stereo not shown) [Example 2, ethyl 6,7-dimethoxy-4-(3,4-dimethoxyphenyl)-2-[(1-methylimidazol-2-yl)sulfinylmethyl]quinoline-3-carboxylate], in assay [1], the change in vivo at 50 mg/kg was found to be 39% and the inhibition in vivo at 50 mg/kg turned out to be 73%.
As to `CCOC(=O)c1c(CSc2nccn2C)nc2cc(OC)c(OC)cc2c1-c1ccc(C)cc1` [Example 33, ethyl 6,7-dimethoxy-4-(4-methylphenyl)-2-[(1-methylimidazol-2-yl)thiomethyl]quinoline-3-carboxylate], in assay [1], the change in vivo at 50 mg/kg amounted to 12% and the inhibition in vivo at 50 mg/kg turned out to be 67%.
For `CCOC(=O)c1c(CSc2nncn2C)nc2cc(OC)c(OC)cc2c1-c1ccc(OC)c(OC)c1` [Example 35, ethyl 6,7-dimethoxy-4-(3,4-dimethoxyphenyl)-2-[(4-methyl-1,2,4-triazol-3-yl)thiomethyl]quinoline-3-carboxylate], in assay [1], the change in vivo at 50 mg/kg came to 11% and the inhibition in vivo at 50 mg/kg was 64%.
For the compound `CCOC(=O)c1c(CSCc2ccc(Cl)cc2)nc2cc(OC)c(OC)cc2c1-c1ccc(OC)c(OC)c1` [Example 41, ethyl 6,7-dimethoxy-4-(3,4-dimethoxyphenyl)-2-[(4-chlorophenyl)methylthiomethyl]quinoline-3-carboxylate], in assay [2], the inhibition at 1 µM stood at 17% and the inhibition at 10 µM came out at 50%.
As to `CCOC(=O)c1c(CSc2ncccc2O)nc2cc(OC)c(OC)cc2c1-c1ccc(OC)c(OC)c1` [Example 46, ethyl 6,7-dimethoxy-4-(3,4-dimethoxyphenyl)-2-[(3-hydroxypyridin-2-yl)thiomethyl]quinoline-3-carboxylate], in assay [3], the inhibition at 1 µM worked out at 39% and the inhibition at 10 µM came out at 92%.
`CCOC(=O)c1c(CSc2nc3ccccc3[nH]2)nc2cc(OC)c(OC)cc2c1-c1ccc(OC)c(OC)c1` [Example 53, ethyl 6,7-dimethoxy-4-(3,4-dimethoxyphenyl)-2-[(benzimidazol-2-yl)thiomethyl]quinoline-3-carboxylate]: the inhibition at 1 µM was 39% in assay [2] and 51% in assay [3]. For the same compound, the inhibition at 10 µM in assay [2] was determined as 71%; in assay [3], 91%.
For the compound `CCOC(=O)c1c(CSc2nccn2C)nc2cc(OC)c(OC)cc2c1-c1ccc2c(c1)OCO2` [Example 69, ethyl 6,7-dimethoxy-4-(3,4-methylenedioxyphenyl)-2-[(1-methylimidazol-2-yl)thiomethyl]quinoline-3-carboxylate], in assay [1], the change in vivo at 50 mg/kg came to 17% and the inhibition in vivo at 50 mg/kg turned out to be 63%.
As to `CCOC(=O)c1c(CSc2nccn2C)nc2cc(OCC)c(OCC)cc2c1-c1ccc(OC)c(OC)c1` [Example 72, ethyl 6,7-diethoxy-4-(3,4-dimethoxyphenyl)-2-[(1-methylimidazol-2-yl)thiomethyl]quinoline-3-carboxylate], in assay [1], the change in vivo at 50 mg/kg stood at 27% and the inhibition in vivo at 50 mg/kg came out at 50%.
With `CCOC(=O)c1c(CCc2nccn2C)nc2cc(OC)c(OC)cc2c1-c1ccc(OC)c(OC)c1` [Example 87, ethyl 6,7-dimethoxy-4-(3,4-dimethoxyphenyl)-2-[2-(1-methylimidazol-2-yl)ethyl]quinoline-3-carboxylate], in assay [1], the change in vivo at 50 mg/kg was 27% and the inhibition in vivo at 50 mg/kg worked out at 75%.
With `COc1ccc(-c2nc(CCc3nccn3C)nc3cc(OC)c(OC)cc23)cc1OC` [Example 88, 6,7-dimethoxy-4-(3,4-dimethoxyphenyl)-2-[2-(1-methylimidazol-2-yl)ethyl]quinazoline], in assay [1], the change in vivo at 50 mg/kg is 24% and the inhibition in vivo at 50 mg/kg was 62%.
